This data set in a line: Whole blood stability assay. The data set is classed as in vitro ADME. Conditions: prodrug 50 nM, fresh pooled human whole blood, 37 degrees C.; read-out: t1/2 at 37 degrees C. in human whole blood. Here is the method: Naltrexone prodrug stability was assessed using freshly collected whole blood (within 24-hr collection) from pooled human (n=3) donors. The incubation mixtures were prepared by spiking the prodrugs into pre-warmed (37 degrees C.) fresh whole blood to a final concentration of 50 nM. After gentle mixing, aliquots of incubation mixtures were immediately transferred into four different 96-deep well plates. One plate was used for each time point. The plates were incubated at 37 degrees C. at a shaking speed of 100 rpm. At time points 15, 30, 60 and 120 minutes, the reaction was quenched by addition of a mixture of water and acetonitrile containing the internal standard (naltrexone-D3). Time point 0 minutes was prepared separately by spiking the prodrugs into a quenched whole blood to obtain a final concentration of 50 nM. All samples were vortexed at a low speed for 15 min and centrifuged at 3900 rpm for 15 min. Supernatants were transferred into 96-well plates for LC-MS/MS analysis to monitor the depletion of the prodrugs and the formation of naltrexone.
The amount of remaining prodrug and released naltrexone for each sample was quantitated against the calibration curves prepared with the whole blood. The human whole blood was purchased from BioreclamationIVT (Westbury, N.Y., USA). Naltrexone-D3 was purchased from CERILLIANT® (Round Rock, Tex., USA). […] Where multiple runs have been completed, average values are reported.
Turning to `COc1c(CC(=O)Oc2ccc3c4c2O[C@H]2C(=O)CC[C@@]5(O)[C@@H](C3)N(CC3CC3)CC[C@]425)ccc2c(OC)c(CC(=O)Oc3ccc4c5c3O[C@H]3C(=O)CC[C@@]6(O)[C@@H](C4)N(CC4CC4)CC[C@]536)ccc12` [Compound 4, bis((4R,4aS,7aR,12bS)-3-(cyclopropylmethyl)-4a-hydroxy-7-oxo-2,3,4,4a,5,6,7,7a-octahydro-1H-4,12-methanobenzofuro[3,2-e]isoquinolin-9-yl) 2,2′-(1,5-dimethoxynaphthalene-2,6-diyl)diacetate], the half-life at 50 nM came to 28.9 min. Turning to `O=C(Cc1ccc2c(F)c(CC(=O)Oc3ccc4c5c3O[C@H]3C(=O)CC[C@@]6(O)[C@@H](C4)N(CC4CC4)CC[C@]536)ccc2c1F)Oc1ccc2c3c1O[C@H]1C(=O)CC[C@@]4(O)[C@@H](C2)N(CC2CC2)CC[C@]314` [Compound 5, bis((4R,4aS,7aR,12bS)-3-(cyclopropylmethyl)-4a-hydroxy-7-oxo-2,3,4,4a,5,6,7,7a-octahydro-1H-4,12-methanobenzofuro[3,2-e]isoquinolin-9-yl) 2,2′-(1,5-difluoronaphthalene-2,6-diyl)diacetate], the half-life at 50 nM was 20.4 min. With `O=C(Cc1ccc2c(Cl)c(CC(=O)Oc3ccc4c5c3O[C@H]3C(=O)CC[C@@]6(O)[C@@H](C4)N(CC4CC4)CC[C@]536)ccc2c1Cl)Oc1ccc2c3c1O[C@H]1C(=O)CC[C@@]4(O)[C@@H](C2)N(CC2CC2)CC[C@]314` [Compound 6, bis((4R,4aS,7aR,12bS)-3-(cyclopropylmethyl)-4a-hydroxy-7-oxo-2,3,4,4a,5,6,7,7a-octahydro-1H-4,12-methanobenzofuro[3,2-e]isoquinolin-9-yl) 2,2′-(1,5-dichloronaphthalene-2,6-diyl)diacetate], the half-life at 50 nM amounted to 25.7 min. The figure for `Cc1c(CC(=O)Oc2ccc3c4c2O[C@H]2C(=O)CC[C@@]5(O)[C@@H](C3)N(CC3CC3)CC[C@]425)ccc2c(C)c(CC(=O)Oc3ccc4c5c3O[C@H]3C(=O)CC[C@@]6(O)[C@@H](C4)N(CC4CC4)CC[C@]536)ccc12` [Compound 7, bis((4R,4aS,7aR,12bS)-3-(cyclopropylmethyl)-4a-hydroxy-7-oxo-2,3,4,4a,5,6,7,7a-octahydro-1H-4,12-methanobenzofuro[3,2-e]isoquinolin-9-yl) 2,2′-(1,5-dimethylnaphthalene-2,6-diyl)diacetate] is 58.6 min.

Turning to `O=C(CCc1ccc2cc(CCC(=O)Oc3ccc4c5c3O[C@H]3C(=O)CC[C@@]6(O)[C@@H](C4)N(CC4CC4)CC[C@]536)ccc2c1)Oc1ccc2c3c1O[C@H]1C(=O)CC[C@@]4(O)[C@@H](C2)N(CC2CC2)CC[C@]314` [Compound 8, bis((4R,4aS,7aR,12bS)-3-(cyclopropylmethyl)-4a-hydroxy-7-oxo-2,3,4,4a,5,6,7,7a-octahydro-1H-4,12-methanobenzofuro[3,2-e]isoquinolin-9-yl) 3,3′-(naphthalene-2,6-diyl)dipropionate], the half-life at 50 nM was found to be 26.3 min.

As to `O=C(Cc1cccc2cccc(CC(=O)Oc3ccc4c5c3O[C@H]3C(=O)CC[C@@]6(O)[C@@H](C4)N(CC4CC4)CC[C@]536)c12)Oc1ccc2c3c1O[C@H]1C(=O)CC[C@@]4(O)[C@@H](C2)N(CC2CC2)CC[C@]314` [Compound 9, bis((4R,4aS,7aR,12bS)-3-(cyclopropylmethyl)-4a-hydroxy-7-oxo-2,3,4,4a,5,6,7,7a-octahydro-1H-4,12-methanobenzofuro[3,2-e]isoquinolin-9-yl) 2,2′-(naphthalene-1,8-diyl)diacetate], the half-life at 50 nM is 40.9 min. For `O=C(Cc1ccc2ccc(CC(=O)Oc3ccc4c5c3O[C@H]3C(=O)CC[C@@]6(O)[C@@H](C4)N(CC4CC4)CC[C@]536)cc2c1)Oc1ccc2c3c1O[C@H]1C(=O)CC[C@@]4(O)[C@@H](C2)N(CC2CC2)CC[C@]314` [Compound 10, bis((4R,4aS,7aR,12bS)-3-(cyclopropylmethyl)-4a-hydroxy-7-oxo-2,3,4,4a,5,6,7,7a-octahydro-1H-4,12-methanobenzofuro[3,2-e]isoquinolin-9-yl) 2,2′-(naphthalene-2,7-diyl)diacetate], the half-life at 50 nM came to 14.7 min.

With `O=C(Oc1ccc2c3c1O[C@H]1C(=O)CC[C@@]4(O)[C@@H](C2)N(CC2CC2)CC[C@]314)c1ccc(C(=O)Oc2ccc3c4c2O[C@H]2C(=O)CC[C@@]5(O)[C@@H](C3)N(CC3CC3)CC[C@]425)cc1` [Reference Compound A, NTX-3-terephthaloyl-NTX, reference compound], the half-life at 50 nM worked out at 54.7 min.
